Patent US5578601A, “Nonpeptide bradykinin antagonists” (Sterling Winthrop Inc., priority 1995, dated 1996)
Structures can show the parent of a compound that is named as a salt. Where two headings read alike, the source gives them in different places.

Columns and labels:
bradykinin B2 receptor = target: T1, bradykinin B2 receptor (Homo sapiens, UniProt P30411); assay: [3H]-bradykinin radioligand competitive binding to human IMR-90 fetal lung fibroblasts (bradykinin B2 receptor); settings: human IMR-90 cells, 2 h, 4° C, pH 7.4, mean values from 2-3 experiments
T1 construct: These cells contain the bradykinin B2 receptor as previously described; endogenous in cells; host or cells: human IMR-90 fetal lung fibroblasts
T1 sequence (P30411 1-391): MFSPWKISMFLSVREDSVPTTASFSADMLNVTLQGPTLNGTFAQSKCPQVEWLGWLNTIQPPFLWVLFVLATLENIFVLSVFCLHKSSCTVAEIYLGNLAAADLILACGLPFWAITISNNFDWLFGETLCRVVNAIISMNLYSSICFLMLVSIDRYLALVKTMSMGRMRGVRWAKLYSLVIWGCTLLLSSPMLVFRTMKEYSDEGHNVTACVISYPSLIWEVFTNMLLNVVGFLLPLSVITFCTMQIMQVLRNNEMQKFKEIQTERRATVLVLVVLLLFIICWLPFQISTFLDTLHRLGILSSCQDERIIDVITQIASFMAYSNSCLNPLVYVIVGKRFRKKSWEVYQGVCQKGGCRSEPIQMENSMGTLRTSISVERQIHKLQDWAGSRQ
Protocol: The receptor binding affinity (KI) of the compounds of the present invention was determined in [^3 H]-bradykinin radioligand binding studies using human IMR-90 fetal lung fibroblasts. […] Briefly stated, harvested IMR-90 cells were resuspended to the desired cell concentration in ice cold buffer containing phosphate buffered saline (PBS) pH-7.4, sodium azide (0.02%), 0.1% BSA, PMSF (1 mM), DTT (1 mM), and captopril (1 mM). For competitive inhibition binding studies, cells were incubated with bradykinin (1-2 nM) in the absence or presence of increasing concentrations of competing compound. All assay mixtures were incubated for 2 hours at 4° C. The binding assays were terminated by filtration through Whatman GF/B filters on a Brandel Cell Harvester and the filters were washed with 3×1 ml aliquots of ice cold PBS containing 0.1% BSA. All filters were presoaked in 0.1% polyethylenimine to decrease nonspecific filter binding.

[1] = system: inflammation and hyperalgesia; settings: intraplantar carrageenan; cited from earlier work
nociception/hyperalgesia = settings: several different animal models of nociception/hyperalgesia; cited from earlier work
rhinovirus infection = settings: intranasal, experimentally induced infection; cited from earlier work

Compound | Ki (bradykinin B2 receptor; read-out: IMR 90 Ki) [µM] | further results
O=C(Nc1cccc2cnccc12)C(Cc1ccc2ccccc2c1)N=C(NC1CCCCC1)NC1CCCCC1 (stereo not drawn) [Example 24, 2-Naphthalenepropanamide, α-[[bis(cyclohexylamino)methylene]amino]-N-5-isoquinolinyl-, monohydrochloride] | 2.54 | 
NPC-567 |  | antagonism of inflammation and hyperalgesia [1]: antagonized; antinociceptive activity (nociception/hyperalgesia): antinociceptive; beneficial effects on the course of rhinovirus infection (rhinovirus infection): failed to demonstrate beneficial effects
O=C(NC1CN2CCC1CC2)C(Cc1ccc(Cl)cc1)NC(=NC1CCCCC1)NC1CCCCC1 (stereo not drawn) [Example 22, 4-chlorophenylpropanamide, N-1-azabicyclo[2.2.2]oct-3-yl-α-[[bis(cyclohexylamino)methylene]amino]-, dihydrochloride] |  | Ki (bradykinin B2 receptor; IMR 90 Ki): 2.9 µM
CCCC[P+](CCCC)(CCCC)Cc1ccc(NC(=O)C(Cc2csc3ccccc23)N=C(NC2CCCCC2)NC2CCCCC2)cc1 (stereo not shown) [Example 13, Phosphonium, [[4-[[3-benzo[b]thien-3-yl-2-[[bis(cyclohexylamino)methylene]amino]-1-oxopropyl]amino]phenyl]methyl]tributyl-, chloride, monohydrochloride] | 0.43 | 
O=C(NCc1nc2ccccc2[nH]1)C(Cc1ccc2ccccc2c1)N=C(NC1CCCCC1)NC1CCCCC1 (stereo not drawn) [Example 25, 2-Naphthalenepropanamide, N-(1H-benzimidazol-2-ylmethyl)-α-[[bis(cyclohexylamino)methylene]amino]-, monohydrochloride] | 5.3 | 

Continued by falling Ki (bradykinin B2 receptor; read-out: IMR 90 Ki), values first:

Ki (bradykinin B2 receptor; read-out: IMR 90 Ki) [µM] | Compound | further results
5.8 | CCCC[P+](CCCC)(CCCC)Cc1ccc(NC(=O)C(Cc2ccc(C(=O)c3ccccc3)cc2)NC(=NC2CCCCC2)NC2CCCCC2)cc1 (stereo not shown) [Example 3, Phosphonium, [[4-[[3-(4-benzoylphenyl)-2-[[bis(cyclohexylamino)methylene]amino]-1-oxopropyl]amino]phenyl]methyl]tributyl-, chloride, monohydrochloride] | 
3 | CCCC[P+](CCCC)(CCCC)Cc1cccc(NC(=O)C(Cc2ccc3ccccc3c2)N=C(NC2CCCCC2)NC2CCCCC2)c1 (stereo not shown) [Example 17, Phosphonium, [[3-[[2-[[bis(cyclohexylamino)methylene]amino]-3-(2-naphthalenyl)-1-oxopropyl]amino]phenyl]methyl]tributyl-, chloride, monohydrochloride] | 
1.95 | CCCC[P+](CCCC)(CCCC)Cc1ccc(NC(=O)C(Cc2ccc3ccccc3c2)N=C(NCCC)NCCCc2ccccc2)cc1 (stereo not shown) [Example 10, Phosphonium, tributyl[[4-[[3-(2-naphthalenyl)-1-oxo-2-[[[(3-phenylpropyl)amino](propylamino)methylene]amino]propyl]amino]phenyl]methyl]-, chloride, monohydrochloride] | 
